Measured values from article PMC4805204, “Robust Stimulation of W1282X-CFTR Channel Activity by a Combination of Allosteric Modulators” (PLoS ONE, 2016).

Target: T1, Δ1198-CFTR (Homo sapiens, UniProt P13569)
T1 construct: NBD2 deletion construct; V1198 replaced with a termination codon
Assay: inside-out macropatch clamp of HEK-293T cells, […] curcumin, order of addition with VX-770
Type: cell-based

T1 sequence (P13569 1-1197, stated change not applied): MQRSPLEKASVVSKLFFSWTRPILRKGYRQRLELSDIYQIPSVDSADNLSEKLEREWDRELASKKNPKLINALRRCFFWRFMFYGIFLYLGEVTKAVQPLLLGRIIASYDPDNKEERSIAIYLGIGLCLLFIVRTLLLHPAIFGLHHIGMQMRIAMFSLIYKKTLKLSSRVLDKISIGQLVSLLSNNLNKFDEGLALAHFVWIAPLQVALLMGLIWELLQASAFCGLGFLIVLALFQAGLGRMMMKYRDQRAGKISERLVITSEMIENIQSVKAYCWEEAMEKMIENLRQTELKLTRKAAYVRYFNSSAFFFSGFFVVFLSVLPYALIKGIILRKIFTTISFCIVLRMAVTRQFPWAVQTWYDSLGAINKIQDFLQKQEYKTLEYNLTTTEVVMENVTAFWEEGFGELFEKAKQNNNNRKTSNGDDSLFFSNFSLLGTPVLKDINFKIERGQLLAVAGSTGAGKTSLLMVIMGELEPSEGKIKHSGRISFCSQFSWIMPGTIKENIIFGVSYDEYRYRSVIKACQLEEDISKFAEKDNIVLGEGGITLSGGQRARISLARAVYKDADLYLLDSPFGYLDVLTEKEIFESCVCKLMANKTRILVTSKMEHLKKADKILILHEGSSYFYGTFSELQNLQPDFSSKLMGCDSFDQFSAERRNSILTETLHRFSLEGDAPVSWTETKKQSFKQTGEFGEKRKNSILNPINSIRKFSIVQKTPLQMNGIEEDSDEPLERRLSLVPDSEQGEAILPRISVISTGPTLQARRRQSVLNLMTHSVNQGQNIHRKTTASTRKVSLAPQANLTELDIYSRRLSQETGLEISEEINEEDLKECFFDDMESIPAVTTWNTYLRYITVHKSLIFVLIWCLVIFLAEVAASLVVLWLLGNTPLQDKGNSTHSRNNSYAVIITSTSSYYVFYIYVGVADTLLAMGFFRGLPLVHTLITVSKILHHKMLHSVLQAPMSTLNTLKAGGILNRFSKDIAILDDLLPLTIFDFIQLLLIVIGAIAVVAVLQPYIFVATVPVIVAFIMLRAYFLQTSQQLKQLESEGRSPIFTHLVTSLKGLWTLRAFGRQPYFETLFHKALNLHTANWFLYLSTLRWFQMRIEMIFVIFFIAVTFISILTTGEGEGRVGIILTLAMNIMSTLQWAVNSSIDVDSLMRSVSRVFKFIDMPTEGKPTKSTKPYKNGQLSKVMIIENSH

COc1cc(/C=C/C(=O)CC(=O)/C=C/c2ccc(O)c(OC)c2)ccc1O [curcumin]
inside-out macropatch clamp of HEK-293T cells, 30 uM curcumin, order of addition: Mean percent stimulation of W1282X-CFTR or Δ1198-CFTR current by each compound alone
